Experimental findings from patent US11007269B2, “P53 degradation inducing molecule and pharmaceutical composition” (Tokyo University of Science Foundation, priority 2016, dated 2021) are described below.

The assay addresses endogenous wild-type p53 protein (Homo sapiens, UniProt P04637). Kind of assay: Western blot of endogenous wild-type p53 protein degradation (knockdown) in HCT116 cells. The assay is classed as cell-based. Also on record: degradation (knockdown) of an endogenous wild-type p53 protein and MDM2 protein in HCT116 cells; endogenous in cells; host or cells: HCT116. Particulars: 48 hours after addition, vs DMSO control. As to the method:
In Example 2, degradation (knockdown) of an endogenous wild-type p53 protein and MDM2 protein in HCT116 cells (human large intestinal cancer cells) to which TIBC-CANDDY_MLN had been added was evaluated by Western blot analysis.
HCT116 cells were seeded in a 24-well plate at a cell density of 8×10^4 cells/well, and then cultured under conditions of 37° C. and 5 vol % CO2 for 16 hours.
After 16 hours from cell seeding, TIBC-CANDDY_MLN or TIBC was added to HCT116 cells as follows. As a medium, a serum-free medium (37° C.) in which 1 mass % L-glutamine solution (Sigma-Aldrich) was added to D-MEM (high D-glucose, phenol red, sodium pyruvate (Wako Pure Chemical Industries, Ltd.)) was used. It is noted that the L-glutamine solution was added immediately before use. […]
After electrophoresis, proteins were transferred to a PVDF membrane (Immobion™-P, Millipore) under conditions of 100 V and 2 hours using a tank-type blotting device and a transfer buffer (25 mM Tris-HCl, 195 mM glycine, 0.01% SDS, 15% methanol). […] Subsequently, the membrane was treated with a chemiluminescence reagent Immobilon™ Western (Millipore), and then chemiluminescence was detected using a lumino image analyzer LAS-3000 (FUJIFILM Corporation).

SMILES strings stand for the structures.

Chain of endogenous wild-type p53 protein (P04637 whole entry): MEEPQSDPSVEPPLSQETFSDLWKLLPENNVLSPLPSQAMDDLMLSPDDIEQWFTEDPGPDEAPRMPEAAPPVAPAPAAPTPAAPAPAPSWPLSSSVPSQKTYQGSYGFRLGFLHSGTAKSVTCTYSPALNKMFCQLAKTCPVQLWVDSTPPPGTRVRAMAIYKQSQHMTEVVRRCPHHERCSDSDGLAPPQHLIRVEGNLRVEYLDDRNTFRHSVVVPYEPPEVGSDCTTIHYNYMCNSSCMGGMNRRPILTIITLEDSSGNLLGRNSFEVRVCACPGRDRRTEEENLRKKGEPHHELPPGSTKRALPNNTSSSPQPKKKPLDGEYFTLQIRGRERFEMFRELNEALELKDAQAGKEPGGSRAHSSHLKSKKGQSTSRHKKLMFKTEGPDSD

Turning to `CC(C)C[C@H](NC(=O)CNC(=O)c1cc(Cl)ccc1Cl)C(=O)NCCCCCCC(=O)Nc1ccc(C(=O)/C=C/c2ccc(I)cc2)cc1` [TIBC-CANDDY_MLN], the “amount of the endogenous wild-type p53 protein (Western blot)” value is given as “reduced”.
